According to patent publication US9512178B2, “Neurogenic brain-derived neurotrophic factor peptides” (Research Foundation for Mental Hygiene, Inc., priority 2012, dated 2016):

Tests used:
[1] = system: mouse E18 hippocampal neurons; assay: Immunocytochemistry of neuronal markers; assay type: cell-based; conditions: 1 μM, 5 days, vs vehicle
Description: For recovering proteins, cells were seeded in 6-well dishes coated with poly-D-lysine (SigmaAldrich, St. Louis, Mo., USA), 50 μg/ml for an overnight, at a density of 1×10^6 cells/well. For immunocytochemistry, cells were seeded onto 5 mm cover slips coated with poly-D-lysine at a density of 7×10^4 cells/well in 100 μl Defined Medium in 96 well plates. The cells were cultured for four days in vitro prior to the beginning of the treatment with the peptides. The treatment with the peptides was done for five days (starting at DIV 4 and finishing at DIV 9). The culture medium was exchanged completely at the beginning of the treatment with a test peptide (at DIV4), and every 72 h until DIV 9.
After 5 days of treatment, cells seeded on cover slips were fixed in 4% paraformaldehyde (Electron Microscopy Sciences, PA, USA) for 30 min at room temperature, and then washed 2× in PBS for storage at 4° C. prior to staining. Cells were permeabilized in 0.2% Triton-X-100 in PBS for 30 min at 25° C. and incubated in blocking buffer (1% BSA w/v, 0.2% Triton-X-100 v/v in PBS) for 60 min at 25° C. The cells were then incubated with primary antibodies at the appropriate dilutions in blocking buffer at 4° C. for 16 h, washed 3×10 min with 0.2% Triton X100 in PBS, and incubated with fluorescently-labeled secondary antibodies diluted in blocking buffer for 1 h at 25° C. in the dark. Cover slips were washed 3×10 min in 0.2% Triton X-100 in PBS and mounted on glass slides with GelMount (Biomeda, Foster City, Calif., USA). The following primary antibodies were used: rabbit polyclonal anti-GFAP (1:500; Sigma-Aldrich, St. Louis, Mo., USA); rabbit polyclonal anti-NFM (1:200; Chemicon/Millipore, Billerica, Mass., USA); mouse monoclonal anti-NeuN (1:300; Millipore, Billerica, Mass., USA); rabbit polyclonal anti-Tuj-1, 0—III-tubulin (1:800; Covance, Emeryville, Calif., USA); mouse monoclonal SMI 52 to the adult isoforms of MAP-2, MAP2a,b (1:1000; Covance, Emeryville, Calif., USA); rabbit polyclonal anti-synapsin I (1:2000; Stressgen, Farmingdale, N.Y., USA); and rabbit monoclonal anti-PSD95 (1:100; Cell Signaling, Danvers, Mass., USA). Secondary goat anti-mouse and anti-rabbit IgGs conjugated with AlexaFluor 594 were used at 1:1000 (Molecular Probes, Carlsbad, Calif., USA). The nuclei were stained with 1 μM TOPRO in PBS (Invitrogen, Grand Island, N.Y., USA). Mounted cover slips were examined using 40× oil immersion objective of a Nikon 90i fluorescent microscope equipped with Nikon C1 three-laser confocal system and a Nikon DS U1 digital camera, and analyzed with EZ-C1 Viewer Image software, Version 6.0. […]

[2] = system: mouse E18 primary hippocampal neurons; assay: Toxicity of the peptides: phase contrast morphology and LDH assay, 5 days treatment; assay type: cell-based
Source text: To screen these peptides, primary neuronal cell cultures were used from embryonic day 18 (E18) C57BL/6 mouse hippocampus. At the fourth day in vitro (DIV), the culture medium was exchanged with the medium containing the peptides. The primary neuronal cultures were established as taught in the art (see, e.g., Cardenas-Aguayo Mdel, Santa-Olalla et al. 2003, hereby incorporate by reference). Briefly, C57BL/6 time pregnant E18 female mice from Charles River Labs were anesthetized and killed by cervical dislocation following our Institutional Animal Care and Use Committee (IACUC) regulations and approved protocol. Embryos were removed and placed in cold Hibernate A (available from Brain bits, Springfield, Ill., USA), and all of the following steps were performed in ice-cold Hibernate A, under a stereoscopic (dissection) microscope placed in a laminar flow hood. Fetal brains were removed carefully and fore brain were separated. Then, the hippocampus, including the cortex surrounding the area of the hippocampus, was dissected and cut into small pieces using microsurgical scissors. The cut tissue was transferred with number 5 forceps to 15 ml tubes containing 0.1% trypsin in Versene (Invitrogen Life Technologies, Grand Island, N.Y., USA) and incubated for 15 min at 37° C. followed by inactivation with 10% fetal bovine serum (FBS) in Neurobasal complete medium (Neurobasal Medium supplemented with 2×B-27, 0.30% glutamine, and penicillin/streptomycin 0.1 mg/ml and 0.1 U/ml respectively). All medium components were purchased from Invitrogen, Grand Island, N.Y., USA. […]
To study any toxic effect of the peptides, mouse E18 primary hippocampal neurons were treated with the five BDNF peptides individually for up to 5 days at different doses [5 nM, 25 nM, 50 nM (data not shown), 100 nM (0.1 μM), 1000 nM (1 μM), and 10,000 nM (10 μM)]. […] Accordingly, there was no significant change in the viability of cells treated with any of the peptides as evaluated by the lactate dehydrogenase (LDH) assay (see FIG. 2B). […]

Ac-I-K-R-G-CONH2 [Peptide B-5]
expression of 0-III-tubulin (immunocytochemistry) [1]: induced an increase | expression of MAP2 (immunocytochemistry) [1]: induced an increase | expression of NFM (immunocytochemistry) [1]: induced an increase | expression of NeuN (immunocytochemistry) [1]: induced an increase

Ac-S-KKR-CONH2 [Peptide B-3]
cell death (LDH assay) vs vehicle treated cells ([2]; 0.1 μM): significant reduction in cell death | cell death (LDH assay) vs vehicle treated cells ([2]; 1 μM): significant reduction in cell death
